Results published in US5968951A, “Benzenesulfonamide derivatives as bradykinin antagonists” (Fournier Industrie et Sante, priority 1995, dated 1999).
Where a name gives a salt, the structure may show the parent alone.

Target: T1, guinea-pig B2 receptor (Cavia porcellus, UniProt O70526)
T1 construct: Ileum segments are isolated from male guinea-pigs of the Dunkin-Hartley strain; tissue Iffa Credo, l'Arbresle, France (animals); host or cells: ileum membranes of male Dunkin-Hartley guinea-pigs
T1 sequence (O70526 1-372): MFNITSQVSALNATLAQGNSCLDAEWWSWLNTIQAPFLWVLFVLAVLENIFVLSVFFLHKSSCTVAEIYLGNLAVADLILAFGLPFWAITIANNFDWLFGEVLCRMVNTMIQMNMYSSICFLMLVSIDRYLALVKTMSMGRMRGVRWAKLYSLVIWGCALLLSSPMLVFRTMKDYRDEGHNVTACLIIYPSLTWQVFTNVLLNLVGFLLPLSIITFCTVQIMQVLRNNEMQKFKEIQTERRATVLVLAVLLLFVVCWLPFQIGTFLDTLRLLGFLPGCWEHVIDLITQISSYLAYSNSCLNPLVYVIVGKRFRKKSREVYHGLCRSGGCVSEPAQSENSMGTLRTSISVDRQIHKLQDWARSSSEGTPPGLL
Assay: [3H]-bradykinin binding to guinea-pig ileum membranes
Settings: test compound 10^-6 M; [3H]-bradykinin 120 pM; 50 μg membrane protein; 90 min at 20° C.; read-out: Activity % (percentage inhibition of the binding of [3H]-bradykinin)
Method: We used the following pharmacological test: Ileum segments are isolated from male guinea-pigs of the Dunkin-Hartley strain (Iffa Credo, l'Arbresle, France) and ground in the following TES buffer: TES 25 mM, 1,10-phenanthroline 1 mM (pH 6.8), bacitracin 140 μg/ml, BSA 1 g/l. The membranes are then isolated by centrifugation (18,000 rpm; 20 min; 4° C.). The binding studies are carried out in the TES buffer using [^3 H]-bradykinin (120 pM) and 50 μg of membrane protein per test (final volume 500 μl) with an equilibrium time of 90 min at 20° C.

SMILES | inhibition at 1 µM [%]
Cc1ccc2cccc(OCc3c(Cl)ccc(S(=O)(=O)N(C)Cc4c[nH]c5ccccc45)c3Cl)c2n1 [Example 7, 2,4-Dichloro-N-methyl-N-[(indol-3-yl)methyl]-3-[(2-methylquinolin-8yl)oxymethyl]benzenesulfonamide] | 97.6
Cc1ccc2cccc(OCc3c(Cl)ccc(S(=O)(=O)N(C)Cc4ccc(N)cc4)c3Cl)c2n1 [Example 8, 2,4-Dichloro-N-methyl-N-[(4-aminophenyl)methyl]-3-[(2-methylquinolin-8-yl)oxymethyl]benzenesulfonamide dihydrochloride] | 99.5
Cc1ccc2cccc(OCc3c(Cl)ccc(S(=O)(=O)N(C)Cc4ccc(O)cc4)c3Cl)c2n1 [Example 9, 2,4-Dichloro-N-methyl-N-[(4-hydroxyphenyl)methyl]-3-[(2-methylquinolin-8-yl)oxymethyl]benzenesulfonamide] | 99.5
Cc1ccc2cccc(OCc3c(Cl)ccc(S(=O)(=O)N(C)Cc4cccc(C(N)=O)c4)c3Cl)c2n1 [Example 10, 2,4-Dichloro-N-methyl-N-[[3-(aminocarbonyl)phenyl]methyl]-3[(2-methylquinolin-8-yl)oxymethyl]benzenesulfonamide] | 99.8
CNC(=O)c1cccc(CN(C)S(=O)(=O)c2ccc(Cl)c(COc3cccc4ccc(C)nc34)c2Cl)c1 [Example 11, 2,4-Dichloro-N-methyl-N-[[3-(methylaminocarbonyl)phenyl]methyl]-3-[(2-methylquinolin-8-yl)oxymethyl]benzenesulfonamide] | 100
Cc1ccc2cccc(OCc3c(Cl)ccc(S(=O)(=O)N(C)Cc4cccc(C(=O)N(C)C)c4)c3Cl)c2n1 [Example 12, 2,4-Dichloro-N-methyl-N-[[3-[(dimethylamino)carbonyl]phenyl]methyl]-3-[(2-methylquinolin-8-yl)oxymethyl]benzenesulfonamide] | 96.9
Cc1ccc2cccc(OCc3c(Cl)ccc(S(=O)(=O)N(C)Cc4cccc(C(=O)NCCCO)c4)c3Cl)c2n1 [Example 13, 2,4-Dichloro-N-methyl-N-[[3-[(3-hydroxypropyl)aminocarbonyl]phenyl]-methyl]-3-[(2-methylquinolin-8-yl)oxymethyl]benzenesulfonamide] | 99.3
Cc1ccc2cccc(OCc3c(Cl)ccc(S(=O)(=O)N(C)Cc4cccc(C(=O)NCCN(C)C)c4)c3Cl)c2n1 [Example 14, 2,4-Dichloro-N-methyl-N-[[3-[[2-(dimethylamino)ethyl]aminocarbonyl]-phenyl]-methyl]-3-[(2-methylquinolin-8-yl)oxymethyl]benzenesulfonamide] | 100
Cc1ccc2cccc(OCc3c(Cl)ccc(S(=O)(=O)N(CCCCCCCO)Cc4ccccc4)c3Cl)c2n1 [Example 25, 2,4-Dichloro-N-(phenylmethyl)-N-(7-hydroxyheptyl)-3-[(2-methylquinolin-8-yl]oxymethyl]benzenesulfonamide] | 95.1
CNC(=O)CCCCCCCN(Cc1ccccc1)S(=O)(=O)c1ccc(Cl)c(COc2cccc3ccc(C)nc23)c1Cl [Example 28, 2,4-Dichloro-N-(phenylmethyl)-N-[8-(methylamino)-8-oxooctyl]-3-[(2-methylquinolin-8-yl)oxymethyl]benzenesulfonamide] | 98

Other lines, results leading:

inhibition at 1 µM [%] | SMILES
97.9 | Cc1ccc2cccc(OCc3c(Cl)ccc(S(=O)(=O)N(C)CCc4ccccc4)c3Cl)c2n1 [Example 15, 2,4Dichloro-N-methyl-N-(2-phenylethyl)-3-[(2-methylquinolin-8-yl)oxymethyl]benzenesulfonamide]
100 | Cc1ccc2cccc(OCc3c(Cl)ccc(S(=O)(=O)N(C)CCCCCCCN)c3Cl)c2n1 [Example 16, 2,4-Dichloro-N-methyl-N-(7-aminoheptyl)-3-[(2-methylquinolin-8-yl)oxymethyl]benzenesulfonamide bis(trifluoroacetate)]
99 | CNC(=O)CCCCCN(C)S(=O)(=O)c1ccc(Cl)c(COc2cccc3ccc(C)nc23)c1Cl [Example 19, 2,4-Dichloro-N-methyl-N-[6-(methylamino)-6-oxohexyl]-3-[(2-methylquinolin-8-yl)oxymethyl]benzenesulfonamide]
95.7 | Cc1ccc2cccc(OCc3c(Cl)ccc(S(=O)(=O)N(C)CCCCCCCCO)c3Cl)c2n1 [Example 20, 2,4-Dichloro-N-methyl-N-(8-hydroxyoctyl)-3-[(2-methylquinolin-8-yl)oxymethyl]benzenesulfonamide]
94.3 | Cc1ccc2cccc(OCc3c(Cl)ccc(S(=O)(=O)N(C)CCCCCCCCCCCCO)c3Cl)c2n1 [Example 21, 2,4-Dichloro-N-methyl-N-(12-hydroxydodecyl)-3-[(2-methylquinolin-8-yl)oxymethyl]benzenesulfonamide]
92.8 | Cc1ccc2cccc(OCc3c(Cl)ccc(S(=O)(=O)N(CCCCN)C(C)(C)C)c3Cl)c2n1 [Example 23, N-(4-Aminobutyl)-N-(1,1-dimethylethyl)-2,4-dichloro-3-[(2-methylquinolin-8-yl)oxymethyl]benzenesulfonamide]
90.5 | CC(=O)NCCCCN(C(C)(C)C)S(=O)(=O)c1ccc(Cl)c(COc2cccc3ccc(C)nc23)c1Cl [Example 24]
